What was measured:
Test in all cases: biochemical
[1] = molecular target: T1, 371 kinases (kinase named in each endpoint) (Homo sapiens, UniProt Q96RG2); settings: PASK
T1 construct: purchased Reaction Biology

[2] = molecular target: T2, 371 kinases (kinase named in each endpoint) (Homo sapiens, UniProt Q15831); settings: LKB1
T2 construct: purchased Reaction Biology

[3] = molecular target: T3, 371 kinases (kinase named in each endpoint) (Homo sapiens, UniProt P23443); settings: P70S6K/RPS6KB1
T3 construct: purchased Reaction Biology

[4] = molecular target: T4, 371 kinases (kinase named in each endpoint) (Homo sapiens, UniProt P35916); settings: FLT4/VEGFR3
T4 construct: purchased Reaction Biology

[5] = molecular target: T5, 371 kinases (kinase named in each endpoint) (Homo sapiens, UniProt P78362); settings: SRPK2
T5 construct: purchased Reaction Biology
T5 sequence (P78362 whole entry): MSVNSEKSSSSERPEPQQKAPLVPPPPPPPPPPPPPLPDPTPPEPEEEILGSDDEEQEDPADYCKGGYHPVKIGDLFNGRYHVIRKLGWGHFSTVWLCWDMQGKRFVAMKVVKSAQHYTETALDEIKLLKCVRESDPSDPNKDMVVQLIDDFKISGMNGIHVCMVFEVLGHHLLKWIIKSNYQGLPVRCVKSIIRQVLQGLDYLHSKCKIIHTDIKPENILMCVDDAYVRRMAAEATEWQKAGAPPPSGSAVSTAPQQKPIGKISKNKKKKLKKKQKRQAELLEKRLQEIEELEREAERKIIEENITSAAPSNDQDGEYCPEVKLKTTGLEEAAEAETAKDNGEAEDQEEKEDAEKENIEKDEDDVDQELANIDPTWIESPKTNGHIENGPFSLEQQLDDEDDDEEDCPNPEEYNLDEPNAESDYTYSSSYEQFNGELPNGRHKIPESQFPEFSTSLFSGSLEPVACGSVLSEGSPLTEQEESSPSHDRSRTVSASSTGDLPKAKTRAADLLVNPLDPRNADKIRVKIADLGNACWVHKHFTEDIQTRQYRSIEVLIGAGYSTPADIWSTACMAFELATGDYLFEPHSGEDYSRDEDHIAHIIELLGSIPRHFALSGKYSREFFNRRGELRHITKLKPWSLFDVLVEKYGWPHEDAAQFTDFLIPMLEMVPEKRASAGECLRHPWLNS

[6] = molecular target: T6, 371 kinases (kinase named in each endpoint) (Homo sapiens, UniProt Q96S53); settings: TESK2
T6 construct: purchased Reaction Biology

[7] = molecular target: T7, 371 kinases (kinase named in each endpoint) (Homo sapiens, UniProt P08631); settings: HCK
T7 construct: purchased Reaction Biology

[8] = molecular target: T8, 371 kinases (kinase named in each endpoint) (Homo sapiens, UniProt P41743); settings: PKCIOTA
T8 construct: purchased Reaction Biology
T8 sequence (P41743 whole entry): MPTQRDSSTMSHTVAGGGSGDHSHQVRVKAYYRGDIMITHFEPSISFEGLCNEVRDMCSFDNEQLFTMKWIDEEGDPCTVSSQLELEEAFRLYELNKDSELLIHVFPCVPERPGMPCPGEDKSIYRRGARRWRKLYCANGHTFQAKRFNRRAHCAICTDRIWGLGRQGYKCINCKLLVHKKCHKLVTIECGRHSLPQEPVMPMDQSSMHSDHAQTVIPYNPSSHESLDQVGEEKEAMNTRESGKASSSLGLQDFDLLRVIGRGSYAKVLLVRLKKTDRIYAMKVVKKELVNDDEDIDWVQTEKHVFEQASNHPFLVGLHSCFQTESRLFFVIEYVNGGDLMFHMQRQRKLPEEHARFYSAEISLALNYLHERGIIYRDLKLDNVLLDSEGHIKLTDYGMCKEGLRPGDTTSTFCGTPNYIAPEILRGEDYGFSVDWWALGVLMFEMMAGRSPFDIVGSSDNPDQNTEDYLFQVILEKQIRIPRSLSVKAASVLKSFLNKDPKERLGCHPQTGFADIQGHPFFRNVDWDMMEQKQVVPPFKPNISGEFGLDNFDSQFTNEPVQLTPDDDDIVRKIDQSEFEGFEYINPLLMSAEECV

[9] = molecular target: T9, 371 kinases (kinase named in each endpoint) (Homo sapiens, UniProt P43250); settings: GRK6
T9 construct: purchased Reaction Biology
T9 sequence (P43250 whole entry): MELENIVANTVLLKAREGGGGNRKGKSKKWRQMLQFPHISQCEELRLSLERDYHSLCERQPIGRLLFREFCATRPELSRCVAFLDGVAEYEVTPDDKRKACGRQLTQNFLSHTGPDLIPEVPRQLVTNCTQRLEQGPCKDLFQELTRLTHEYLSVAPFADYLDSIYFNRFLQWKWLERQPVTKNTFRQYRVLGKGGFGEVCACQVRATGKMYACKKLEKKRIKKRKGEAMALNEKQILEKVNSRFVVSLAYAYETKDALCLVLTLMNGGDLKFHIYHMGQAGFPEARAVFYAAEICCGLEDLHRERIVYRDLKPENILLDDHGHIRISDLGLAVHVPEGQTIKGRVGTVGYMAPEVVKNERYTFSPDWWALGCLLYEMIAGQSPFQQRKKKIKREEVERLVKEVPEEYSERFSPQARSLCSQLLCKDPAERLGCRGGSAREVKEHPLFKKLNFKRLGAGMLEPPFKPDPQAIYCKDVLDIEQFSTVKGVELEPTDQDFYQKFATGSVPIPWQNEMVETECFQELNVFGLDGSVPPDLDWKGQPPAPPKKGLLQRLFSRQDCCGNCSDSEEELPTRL

[10] = molecular target: T10, 371 kinases (kinase named in each endpoint) (Homo sapiens, UniProt O00311); settings: CDC7/DBF4
T10 construct: purchased Reaction Biology

[11] = molecular target: T11, 371 kinases (kinase named in each endpoint) (Homo sapiens, UniProt Q05397); settings: FAK/PTK2
T11 construct: purchased Reaction Biology

[12] = molecular target: T12, 371 kinases (kinase named in each endpoint) (Homo sapiens, UniProt Q5S007); settings: LRRK2
T12 construct: purchased Reaction Biology

[13] = molecular target: T13, 371 kinases (kinase named in each endpoint) (Homo sapiens, UniProt P49674); settings: CK1EPSILON
T13 construct: purchased Reaction Biology

[14] = molecular target: T14, 371 kinases (kinase named in each endpoint) (Homo sapiens, UniProt Q13627); settings: DYRK1/DYRK1A
T14 construct: purchased Reaction Biology

[15] = molecular target: T15, 371 kinases (kinase named in each endpoint) (Homo sapiens, UniProt P15735); settings: PHKG2
T15 construct: purchased Reaction Biology

[16] = molecular target: T16, 371 kinases (kinase named in each endpoint) (Homo sapiens, UniProt P57059); settings: SIK1
T16 construct: purchased Reaction Biology

[17] = molecular target: T17, 371 kinases (kinase named in each endpoint) (Homo sapiens, UniProt P06241); settings: FYN
T17 construct: purchased Reaction Biology
T17 sequence (P06241 whole entry): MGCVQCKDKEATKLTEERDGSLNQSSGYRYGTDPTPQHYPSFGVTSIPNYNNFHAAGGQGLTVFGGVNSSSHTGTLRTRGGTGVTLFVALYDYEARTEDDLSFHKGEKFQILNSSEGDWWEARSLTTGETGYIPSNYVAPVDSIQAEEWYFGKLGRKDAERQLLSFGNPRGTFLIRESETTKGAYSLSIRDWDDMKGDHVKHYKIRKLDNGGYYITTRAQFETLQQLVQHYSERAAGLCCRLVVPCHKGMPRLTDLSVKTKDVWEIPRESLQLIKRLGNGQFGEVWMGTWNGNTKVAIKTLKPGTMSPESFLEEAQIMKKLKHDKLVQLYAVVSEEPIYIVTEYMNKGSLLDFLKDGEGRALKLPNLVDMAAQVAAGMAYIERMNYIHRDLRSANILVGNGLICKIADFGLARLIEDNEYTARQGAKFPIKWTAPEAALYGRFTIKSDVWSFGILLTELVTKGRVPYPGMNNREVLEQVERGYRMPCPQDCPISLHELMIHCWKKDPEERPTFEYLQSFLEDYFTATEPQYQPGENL

[18] = molecular target: T18, 371 kinases (kinase named in each endpoint) (Homo sapiens, UniProt Q8TDX7); settings: NEK7
T18 construct: purchased Reaction Biology

[19] = molecular target: T19, 371 kinases (kinase named in each endpoint) (Homo sapiens, UniProt P42679); settings: CTK/MATK
T19 construct: purchased Reaction Biology
T19 sequence (P42679 whole entry): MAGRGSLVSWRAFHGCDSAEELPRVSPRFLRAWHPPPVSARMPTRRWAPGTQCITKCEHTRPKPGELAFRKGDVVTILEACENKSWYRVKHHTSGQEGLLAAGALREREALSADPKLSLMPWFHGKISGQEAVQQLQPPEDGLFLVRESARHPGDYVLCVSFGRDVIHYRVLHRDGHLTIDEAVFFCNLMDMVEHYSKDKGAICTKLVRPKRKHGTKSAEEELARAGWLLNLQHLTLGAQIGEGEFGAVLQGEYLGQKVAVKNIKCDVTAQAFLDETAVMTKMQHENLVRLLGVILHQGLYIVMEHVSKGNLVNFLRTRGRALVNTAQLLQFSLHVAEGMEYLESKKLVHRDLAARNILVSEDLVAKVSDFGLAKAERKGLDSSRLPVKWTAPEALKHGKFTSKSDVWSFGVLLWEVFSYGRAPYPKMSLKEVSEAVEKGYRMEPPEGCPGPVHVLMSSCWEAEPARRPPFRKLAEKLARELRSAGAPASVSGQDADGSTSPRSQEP

[20] = molecular target: T20, 371 kinases (kinase named in each endpoint) (Homo sapiens, UniProt Q9NY57); settings: STK32B/YANK2
T20 construct: purchased Reaction Biology

[21] = molecular target: T21, 371 kinases (kinase named in each endpoint) (Homo sapiens, UniProt O94921); settings: CDK14/CYCLIN Y (PFTK1)
T21 construct: purchased Reaction Biology

[22] = molecular target: T22, 371 kinases (kinase named in each endpoint) (Homo sapiens, UniProt Q13976); settings: PKG1A
T22 construct: purchased Reaction Biology
T22 sequence (Q13976 whole entry): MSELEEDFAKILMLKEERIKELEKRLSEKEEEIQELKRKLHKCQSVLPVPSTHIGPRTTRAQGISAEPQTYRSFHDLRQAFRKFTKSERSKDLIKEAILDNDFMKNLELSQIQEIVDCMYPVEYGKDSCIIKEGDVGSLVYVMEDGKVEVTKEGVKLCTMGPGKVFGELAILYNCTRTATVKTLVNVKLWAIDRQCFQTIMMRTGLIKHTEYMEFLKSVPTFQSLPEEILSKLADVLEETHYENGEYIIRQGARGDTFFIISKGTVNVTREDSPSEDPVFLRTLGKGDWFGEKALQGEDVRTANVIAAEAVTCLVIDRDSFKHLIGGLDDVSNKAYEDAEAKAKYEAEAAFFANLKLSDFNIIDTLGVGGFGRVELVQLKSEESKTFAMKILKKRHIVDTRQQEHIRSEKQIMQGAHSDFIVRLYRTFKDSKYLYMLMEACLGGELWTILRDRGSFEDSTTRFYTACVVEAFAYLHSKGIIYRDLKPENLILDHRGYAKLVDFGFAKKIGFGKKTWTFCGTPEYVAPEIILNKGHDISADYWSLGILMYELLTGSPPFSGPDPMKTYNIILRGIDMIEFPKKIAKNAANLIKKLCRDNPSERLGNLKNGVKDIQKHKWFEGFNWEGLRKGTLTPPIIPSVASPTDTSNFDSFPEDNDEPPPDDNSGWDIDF

[23] = molecular target: T23, 371 kinases (kinase named in each endpoint) (Homo sapiens, UniProt O95835); settings: LATS1
T23 construct: purchased Reaction Biology

[24] = molecular target: T24, 371 kinases (kinase named in each endpoint) (Homo sapiens, UniProt P08069); settings: IGF1R
T24 construct: purchased Reaction Biology

[25] = molecular target: T25, 371 kinases (kinase named in each endpoint) (Homo sapiens, UniProt Q16816); settings: PHKG1
T25 construct: purchased Reaction Biology

[26] = molecular target: T26, 371 kinases (kinase named in each endpoint) (Homo sapiens, UniProt P28482); settings: ERK2/MAPK1
T26 construct: purchased Reaction Biology

[27] = molecular target: T27, 371 kinases (kinase named in each endpoint) (Homo sapiens, UniProt Q92918); settings: HPK1/MAP4K1
T27 construct: purchased Reaction Biology

[28] = molecular target: T28, 371 kinases (kinase named in each endpoint) (Homo sapiens, UniProt Q9Y243); settings: AKT3
T28 construct: purchased Reaction Biology

[29] = molecular target: T29, 371 kinases (kinase named in each endpoint) (Homo sapiens, UniProt Q99683); settings: ASK1/MAP3K5
T29 construct: purchased Reaction Biology

[30] = molecular target: T30, 371 kinases (kinase named in each endpoint) (Homo sapiens, UniProt Q13873); settings: BMPR2
T30 construct: purchased Reaction Biology

[31] = molecular target: T31, 371 kinases (kinase named in each endpoint) (Homo sapiens, UniProt Q7KZI7); settings: MARK2/PAR-1BA
T31 construct: purchased Reaction Biology
T31 sequence (Q7KZI7 whole entry): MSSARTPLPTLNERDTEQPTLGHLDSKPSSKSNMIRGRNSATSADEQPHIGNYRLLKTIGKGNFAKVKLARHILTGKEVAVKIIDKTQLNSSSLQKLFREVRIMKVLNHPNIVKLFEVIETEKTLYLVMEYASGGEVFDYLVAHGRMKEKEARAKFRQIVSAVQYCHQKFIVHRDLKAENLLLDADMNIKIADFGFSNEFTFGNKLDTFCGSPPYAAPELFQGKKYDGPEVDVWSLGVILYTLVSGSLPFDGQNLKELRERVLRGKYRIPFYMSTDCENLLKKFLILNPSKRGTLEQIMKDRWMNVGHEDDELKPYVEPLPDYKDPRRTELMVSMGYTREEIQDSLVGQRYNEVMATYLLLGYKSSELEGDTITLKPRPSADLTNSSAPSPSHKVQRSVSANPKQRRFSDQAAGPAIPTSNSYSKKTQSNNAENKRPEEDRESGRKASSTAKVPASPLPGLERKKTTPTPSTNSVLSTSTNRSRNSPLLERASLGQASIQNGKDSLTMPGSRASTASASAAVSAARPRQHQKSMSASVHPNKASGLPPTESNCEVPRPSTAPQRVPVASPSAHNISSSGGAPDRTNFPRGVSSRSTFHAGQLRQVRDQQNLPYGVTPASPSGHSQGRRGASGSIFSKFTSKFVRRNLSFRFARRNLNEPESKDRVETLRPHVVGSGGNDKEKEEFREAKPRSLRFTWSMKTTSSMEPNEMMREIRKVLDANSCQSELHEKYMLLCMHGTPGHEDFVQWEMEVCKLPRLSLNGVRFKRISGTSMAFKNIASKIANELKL

[32] = molecular target: T32, 371 kinases (kinase named in each endpoint) (Homo sapiens, UniProt Q8IU85); settings: CAMK1D
T32 construct: purchased Reaction Biology
T32 sequence (Q8IU85 whole entry): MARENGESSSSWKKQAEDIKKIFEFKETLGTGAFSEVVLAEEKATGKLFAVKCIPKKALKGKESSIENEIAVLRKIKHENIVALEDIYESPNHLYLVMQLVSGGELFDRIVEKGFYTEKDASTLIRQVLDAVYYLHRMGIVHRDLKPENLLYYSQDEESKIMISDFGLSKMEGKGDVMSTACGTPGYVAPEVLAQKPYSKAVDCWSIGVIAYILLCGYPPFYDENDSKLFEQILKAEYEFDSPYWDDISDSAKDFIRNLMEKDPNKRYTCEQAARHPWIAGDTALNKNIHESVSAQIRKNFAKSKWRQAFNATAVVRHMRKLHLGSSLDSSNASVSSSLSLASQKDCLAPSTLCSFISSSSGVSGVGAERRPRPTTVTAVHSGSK

[33] = molecular target: T33, 371 kinases (kinase named in each endpoint) (Homo sapiens, UniProt P05771); settings: PKCB1
T33 construct: purchased Reaction Biology

[34] = molecular target: T34, 371 kinases (kinase named in each endpoint) (Homo sapiens, UniProt Q6IQ55); settings: TTBK2
T34 construct: purchased Reaction Biology

[35] = molecular target: T35, 371 kinases (kinase named in each endpoint) (Homo sapiens, UniProt Q86V86); settings: PIM3
T35 construct: purchased Reaction Biology

[36] = molecular target: T36, 371 kinases (kinase named in each endpoint) (Homo sapiens, UniProt Q96PN8); settings: TSSK3/STK22C
T36 construct: purchased Reaction Biology
T36 sequence (Q96PN8 whole entry): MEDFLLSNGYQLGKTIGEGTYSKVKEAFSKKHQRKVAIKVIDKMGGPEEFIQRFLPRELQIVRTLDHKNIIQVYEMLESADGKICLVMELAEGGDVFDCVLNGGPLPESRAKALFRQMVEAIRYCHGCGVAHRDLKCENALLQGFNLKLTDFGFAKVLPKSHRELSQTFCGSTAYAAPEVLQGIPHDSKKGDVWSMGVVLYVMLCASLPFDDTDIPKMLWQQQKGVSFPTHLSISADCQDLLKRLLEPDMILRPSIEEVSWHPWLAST

## O=C(O)c1cc(C(F)(F)F)ccc1NCCc1c[nH]c2cc(Br)ccc12 [Compound 5, 2-((2-(6-Bromo-1H-indol-3-yl)ethyl)amino)−5-(trifluoromethyl)benzoic Acid]
[1]
  activity at 10 µM: 95.2 ± 2.9%
[2]
  activity at 10 µM: 93.7 ± 1.8%
[3]
  activity at 10 µM: 85.4 ± 0.7%
[4]
  activity at 10 µM: 102 ± 3.7%
[5]
  activity at 10 µM: 95.1%
[6]
  activity at 10 µM: 78.7 ± 0.8%
[7]
  activity at 10 µM: 86.2 ± 0.4%
[8]
  activity at 10 µM: 96.8 ± 0.8%
[9]
  activity at 10 µM: 112 ± 2.8%
[10]
  activity at 10 µM: 77.9 ± 2.9%
[11]
  activity at 10 µM: 88.2 ± 1.5%
[12]
  activity at 10 µM: 99.5 ± 0.1%
[13]
  activity at 10 µM: 60.1 ± 1.8%
[14]
  activity at 10 µM: 80 ± 5.9%
[15]
  activity at 10 µM: 106.5 ± 0.1%
[16]
  activity at 10 µM: 69.3 ± 1%
[17]
  activity at 10 µM: 86.4 ± 1.8%
[18]
  activity at 10 µM: 80.2 ± 0.8%
[19]
  activity at 10 µM: 71.1 ± 3.8%
[20]
  activity at 10 µM: 154.6 ± 0.7%
[21]
  activity at 10 µM: 114 ± 1.5%
[22]
  activity at 10 µM: 101 ± 1.8%
[23]
  activity at 10 µM: 93 ± 3.5%
[24]
  activity at 10 µM: 93.2 ± 0.1%
[25]
  activity at 10 µM: 87 ± 2.6%
[26]
  activity at 10 µM: 118 ± 3%
[27]
  activity at 10 µM: 77.2 ± 0.7%
[28]
  activity at 10 µM: 90.2 ± 0.5%
[29]
  activity at 10 µM: 110 ± 2.8%
[30]
  activity at 10 µM: 88 ± 5.4%
[31]
  activity at 10 µM: 87.5 ± 0.7%
[32]
  activity at 10 µM: 69.8 ± 1.7%
[33]
  activity at 10 µM: 91%
[34]
  activity at 10 µM: 105 ± 1.1%
[35]
  activity at 10 µM: 20.6 ± 1%
[36]
  activity at 10 µM: 68.9 ± 0.2%
